Experimental findings from US9682928B2 (NeuroPro Therapeutics, Inc., priority 2009, dated 2017) are described below.

Structures are written as SMILES. Like-named read-outs stand apart in the source and are kept apart here.

For one experiment, the system named is mouse. In words: Formalin test (acute/early and late phase) in mice. Type of experiment: in vivo. Conditions: 150 mg/kg i.p., mice. As for the experimental part: The formalin test was performed according to the method of Tjølsen, et al. (October 1992) “The formalin test: an evaluation of the method.” Pain 51(1): 5-17. An injection of 0.5% formalin is made into the plantar region of the right hind paw of a mouse. This elicits a distinct behavioral profile in response to the formalin injection characterized by the mouse licking the affected paw. The behavior is characteristically biphasic in nature. For example, immediately following the injection the mouse intensely licks the paw for approximately 5-10 minutes (“min.”) This initial behavior was considered phase 1 (acute) and is thought to be mediated primarily by chemical activation of local C-fibers. The acute phase is followed by a brief latent (usually <5 min) period where there is little or no behavioral activity. A more prolonged (about 20 to 30 min) period of licking then ensues which constitutes phase 2 of the response (late phase). See e.g., Tjølsen, et al. (Feb. 7, 1991) “Antinociceptive effect of paracetamol in rats is partly dependent on spinal serotonergic systems. Eur J Pharmacol. 193(2): 193-201 and Tjølsen, et al. (June 1991) Lesions of bulbo-spinal serotonergic or noradrenergic pathways reduce nociception as measured by the formalin test. Acta Physiol Scand. 142(2): 229-36, the disclosures of each of which are hereby incorporated by reference in its entirety.
It is in these tubes that mice are later observed for the licking activity for the duration of the experiment. Following the conditioning, the test substance was administered i.p. in a dose equivalent to the MES ED50 and the mouse returned to its home tube. At the TPE of the drug, the formalin is injected subdermally into the plantar surface of the right hind foot. It is given in a volume of 20 μl with a 27 gauge stainless steel needle attached to a Hamilton syringe. The bevel of the needle was placed facing down toward the skin surface. […] The cumulative length of licking for each 2-min time period was measured. […] Animals are euthanized following the conclusion of the experiment.
Area under the curve (AUC) and subsequent percent of control for drug-treated animal groups is determined using the GraphPad Prism Version 3.03. Total AUC was calculated for both the test and control groups for both the acute and inflammatory phases. The AUC for individual animals for each phase was also calculated and converted to percentage of total AUC of control. The average and S.E.M. for both the drug treated and control percentages were calculated and tested for significant difference.

Another experiment has as its system Sprague-Dawley rats. In words: Kainic acid induced seizures in rats. The experiment is classed as in vivo, rat. Details: key to Seizures Severity Mean ± SD (grade 0 to IV): seizure grade 0 = no response to IV = status epilepticus. Conditions: 20 μmoles/kg IP; for Seizures Severity Mean ± SD (grade 0 to IV) / Seizures Mean ± SD (1 = yes, 0 = no): KA 15 mg/kg i.p.; for Seizures Mean ± SD (1 = yes, 0 = no): 2 hours; for change in vivo at 20 µmol/kg: Rattus norvegicus, 2 h, vs DMSO control. As for the experimental part: Formulation of kainic acid was performed by NTS as a stock solution by reconstituting kainic acid with (100%) saline that was stored at 4° C. Vehicle control received saline solution. […] The research investigators were blinded to the treatment groups.
Solutions were prepared fresh daily just prior to use; dosing of all 10 rats with any given compound occurred on a single day after preparing the dosing solution. […] Unused remaining dosing solutions were stored frozen.
Animals were maintained in a temperature- and light-controlled environment in accord with the principles and procedures of the National Institutes of Health Guidelines for Care and Use of Laboratory Animals. Seizures were induced in adult, male Sprague-Dawley rats (260-300 g) by injection of KA (15 mg/kg, i.p.). In addition, animals were injected with test compounds following kainic acid to determine the effects on protection from epilepsy. Animals were monitored behaviorally for seizures for 2 hours after injection.
Seizure activity was initially characterized as either yes (1) or no (0) within a 2 hour period following injection of KA. A seizure severity grade was assigned based on the maximal response achieved on a scale from 0 to IV as follows: 0, no response; I, single limb clonus and scratching; II, multiple limb clonus and staggering gait; […], limb clonus, tonic extension of limbs and falling; IV, continuous grade III seizures for longer than 30 min (status epilepticus).
The results were expressed as the mean±standard deviation (SD). The significance of difference in the epileptic data was analyzed using a one-way analysis of variance (ANOVA) followed by Fisher's post hoc test. Repeated-measures ANOVA were computed on the monitoring data and the significance of the difference among groups were evaluated by Fisher's post hoc test.
All groups were subjected to kainic acid.
The induction of seizures in rats with kainic acid was determined as either yes seizures (1) or no seizures (0).

A further experiment addresses T1, Na+K+Cl− co-transporter (Rattus norvegicus, UniProt E9PTX9).
T1 construct: endogenous in cells; host or cells: A7r5 cells
T1 sequence (E9PTX9 1-1203): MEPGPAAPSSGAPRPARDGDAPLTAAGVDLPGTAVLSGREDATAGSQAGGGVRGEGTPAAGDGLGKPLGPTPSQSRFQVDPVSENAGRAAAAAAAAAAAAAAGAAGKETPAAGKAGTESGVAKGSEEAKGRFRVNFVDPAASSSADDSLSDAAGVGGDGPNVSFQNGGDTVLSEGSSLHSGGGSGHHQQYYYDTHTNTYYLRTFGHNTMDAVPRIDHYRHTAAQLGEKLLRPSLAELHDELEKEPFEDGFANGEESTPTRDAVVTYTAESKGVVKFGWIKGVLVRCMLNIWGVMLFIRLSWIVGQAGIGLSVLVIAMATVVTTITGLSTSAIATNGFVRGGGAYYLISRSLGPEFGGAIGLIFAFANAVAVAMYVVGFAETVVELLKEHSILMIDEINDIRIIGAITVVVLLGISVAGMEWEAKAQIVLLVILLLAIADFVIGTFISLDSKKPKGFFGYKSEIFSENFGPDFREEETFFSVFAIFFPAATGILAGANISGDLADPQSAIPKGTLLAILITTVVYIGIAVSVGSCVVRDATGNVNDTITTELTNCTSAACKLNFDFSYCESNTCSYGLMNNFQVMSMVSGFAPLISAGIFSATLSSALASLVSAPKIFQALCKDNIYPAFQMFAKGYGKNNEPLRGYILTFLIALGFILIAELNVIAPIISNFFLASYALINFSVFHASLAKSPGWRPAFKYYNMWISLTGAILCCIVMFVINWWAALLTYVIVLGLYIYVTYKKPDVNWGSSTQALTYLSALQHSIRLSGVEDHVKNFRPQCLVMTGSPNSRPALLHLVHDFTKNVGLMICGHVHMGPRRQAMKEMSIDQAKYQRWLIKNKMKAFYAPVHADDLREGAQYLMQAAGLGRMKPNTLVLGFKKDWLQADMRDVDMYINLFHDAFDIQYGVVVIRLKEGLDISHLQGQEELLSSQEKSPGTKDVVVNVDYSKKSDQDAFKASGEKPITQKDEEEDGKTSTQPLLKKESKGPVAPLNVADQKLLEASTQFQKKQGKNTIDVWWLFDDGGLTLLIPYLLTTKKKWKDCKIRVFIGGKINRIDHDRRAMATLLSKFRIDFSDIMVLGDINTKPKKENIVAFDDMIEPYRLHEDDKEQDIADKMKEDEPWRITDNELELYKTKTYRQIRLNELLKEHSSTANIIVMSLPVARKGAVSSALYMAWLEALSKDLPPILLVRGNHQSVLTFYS
In words: Na+K+Cl− cotransporter assay, 86Rb uptake in A7r5 cells. Type of experiment: cell-based. Conditions: 10 minutes at 37° C.; for inhibition at 10 µM: read-out: % Inhibition of Control Values; for remaining activity at 10 µM: read-out: % of Control Value. The procedure:
Na^+K^+Cl^− co-transporter activity was measured in vitro in A7r5 cells by measuring their uptake of ^86Rb (0.2 μCi) in 10 minutes at 37° C. as detected by scintillation counting. See Chassande, et al. (1988) “The Na^+/K^+/Cl^− Cotransport in C6 glioma cells. Properties and role in volume regulation.” Eur. J. Biochem. 171: 425433.

Setting [1] is: read-out: Percent reduction in Seizures.
The mark [2] stands for this setting: read-out: Percent reduction in Seizures Severity.

With `CCCCNc1cc(C(=O)N(Cc2ccccc2)Cc2ccccc2)cc(S(N)(=O)=O)c1Oc1ccccc1` [NTP-2008, N,N-Dibenzyl 3-Aminosulfonyl-5-butylamino-4-phenoxybenzamide], in the experiment with mouse, the “% of Control, Acute” value came out at 63.69%; the “% of Control, Late Phase” value is recorded as 10.66%; the “Treated (AUC of licking time), Acute” value was found to be 73.94; the “Treated (AUC of licking time), Late Phase” value (shortened to “Treated … Late Phase”) is given as 66.42. Also, in the experiment on Sprague-Dawley rats, the “Seizures Severity Mean ± SD (grade 0 to IV)” value (“Seizures Severity Mean ± SD” below) is reported as 0.1000 ± 0.3162 and the “Seizures Mean ± SD (1 = yes, 0 = no)” value was determined as 0.1000 ± 0.3162. In the experiment with Sprague-Dawley rats (setting [1]), the change in vivo at 20 µmol/kg is -88.9%. In addition, in the experiment on Sprague-Dawley rats (setting [2]), the change in vivo at 20 µmol/kg was -95.8%. For the same compound, at Na+K+Cl− co-transporter, the inhibition at 10 µM was found to be 17% and the remaining activity at 10 µM stood at 82.8%.
For the compound `CCCCNc1cc(C(=O)OCC(=O)N(C)C)cc(S(N)(=O)=O)c1Oc1ccccc1` [NTP-2011, N,N-Dimethylaminocarbonylmethyl 3-Aminosulfonyl-5-butylamino-4-phenoxybenzoate], in the experiment with mouse, the “% of Control, Acute” value stood at 53.37%; the “% of Control, Late Phase” value is given as 0.72%; the “Treated (AUC of licking time), Acute” value is reported as 78.55; the “Treated … Late Phase” value was determined as 5.43. In the experiment with Sprague-Dawley rats, the “Seizures Severity Mean ± SD” value is reported as 0.3000 ± 0.6749 and the “Seizures Mean ± SD (1 = yes, 0 = no)” value turned out to be 0.2000 ± 0.4216. In addition, in the experiment with Sprague-Dawley rats (setting [1]), the change in vivo at 20 µmol/kg is -77.8%. Also, in the experiment on Sprague-Dawley rats (setting [2]), the change in vivo at 20 µmol/kg was -87.5%. On Na+K+Cl− co-transporter, the inhibition at 10 µM amounted to 13% and the remaining activity at 10 µM is 87.4%.
With `CCCCNc1cc(C(=O)OCOC(=O)C(C)(C)C)cc(S(N)(=O)=O)c1Oc1ccccc1` [NTP-2012, t-Butylcarbonyloxymethyl 3-Aminosulfonyl-5-butylamino-4-phenoxybenzoate], in the experiment on mouse, the “% of Control, Acute” value is given as 48.5%; the “% of Control, Late Phase” value was determined as 0.49%; the “Treated (AUC of licking time), Acute” value was 75.07; the “Treated … Late Phase” value is 5.08. For the same compound, in the experiment on Sprague-Dawley rats, the “Seizures Severity Mean ± SD” value worked out at 0.2000 ± 0.4216 and the “Seizures Mean ± SD (1 = yes, 0 = no)” value stood at 0.2000 ± 0.4216. Also, the change in vivo at 20 µmol/kg in the experiment with Sprague-Dawley rats (setting [1]) was -77.8%. Also, the change in vivo at 20 µmol/kg with Sprague-Dawley rats (setting [2]) is -91.7%. In addition, at Na+K+Cl− co-transporter, the inhibition at 10 µM is 35% and the remaining activity at 10 µM turned out to be 65.5%.
